Experimental data as given in BindingDB's records for doi:10.1080/14756360903179484 (University of Karachi, 2010).

Molecular target: T1, Seed linoleate 13S-lipoxygenase-1 (Glycine max, UniProt P08170)
T1 sequence (P08170 whole entry): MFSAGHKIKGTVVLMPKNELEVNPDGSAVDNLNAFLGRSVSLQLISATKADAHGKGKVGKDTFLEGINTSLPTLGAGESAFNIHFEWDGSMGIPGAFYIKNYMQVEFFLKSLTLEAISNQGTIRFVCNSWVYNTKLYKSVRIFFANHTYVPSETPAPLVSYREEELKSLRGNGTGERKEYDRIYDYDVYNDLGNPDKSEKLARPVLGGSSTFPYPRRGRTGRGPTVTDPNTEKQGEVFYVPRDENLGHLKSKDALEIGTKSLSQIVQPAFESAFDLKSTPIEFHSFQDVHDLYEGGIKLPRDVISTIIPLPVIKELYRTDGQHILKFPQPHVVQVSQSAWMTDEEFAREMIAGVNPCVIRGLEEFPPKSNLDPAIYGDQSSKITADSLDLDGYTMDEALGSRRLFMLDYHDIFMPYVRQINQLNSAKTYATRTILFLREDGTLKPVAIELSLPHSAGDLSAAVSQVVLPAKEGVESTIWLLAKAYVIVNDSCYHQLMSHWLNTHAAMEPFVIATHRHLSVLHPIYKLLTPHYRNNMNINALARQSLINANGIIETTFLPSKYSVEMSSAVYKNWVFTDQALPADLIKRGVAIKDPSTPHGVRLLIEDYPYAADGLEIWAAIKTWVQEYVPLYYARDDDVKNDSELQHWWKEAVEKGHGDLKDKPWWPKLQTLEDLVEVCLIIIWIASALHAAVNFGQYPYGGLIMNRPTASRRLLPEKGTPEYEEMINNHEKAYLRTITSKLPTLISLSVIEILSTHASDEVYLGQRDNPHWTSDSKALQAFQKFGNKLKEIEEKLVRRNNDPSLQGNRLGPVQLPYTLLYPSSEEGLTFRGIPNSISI
Assay: Lipoxygenase Inhibition Assay
Conditions: pH 8; 25 °C
Protocol: A mixture of test compound (10 μL; 1 mM) in MeOH, type-1B lipoxygenase (EC 1.13.11.12; from soyabean) (20 μL; 70 units) in 0.1 M aqueous phosphate buffer (pH 8.0) in a total volume of 160 μL was incubated for 10 min at 25°C. Then the reaction was initiated by the addition of a solution of linoleic acid as substrate (10 μL; 20 μM), resulting in the formation of (9Z,11E,13S)-13-hydroperoxyoctadeca-9,11-dienoate. The change in UV absorbance at 234 nm was followed over a period of 6 min. All reactions were performed in triplicate, and analyzed with a 96-well plate reader (SpectraMax Plus 384; Molecular Devices).

IC50	SMILES
100 µM	COc1ccc(-c2coc3cc(O)cc(O)c3c2=O)cc1 [5,7-dihydroxy-3-(4-methoxyphenyl)-4H-chromen-4-one]
55.2 µM	COc1cc(-c2coc3cc(O)c(O)cc3c2=O)ccc1O [Conferin (1)]
